Test results reported in the supplement of paper PMC10307832.

Tests used:
Experiment in all cases: relative viability (nuclei count vs DMSO), 5 days (fraction); higher = more cells survive
NCI-H1666 = tested on: NCI-H1666
Method in brief: (§1)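 A single step with final 0.05% Triton X-100, 1% formaldehyde and 1 ug/ml Hoechst fixed the cells and stained nuclei 5 days after treatment. Lung cancer cell lines in 1536-well plates had been treated by pin tool the day after seeding with one drug alone or a fixed anchor-drug dose plus five library-drug doses (not always all listed) in √10 steps, and nuclei were counted on 4× images. Relative viability is the ratio of nuclei in treated wells to nuclei in vehicle wells, taken as the median of duplicate plates.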

NCI-H661 = tested on: NCI-H661
Method in brief: as §1

CAL-12T = tested on: CAL-12T
Method in brief: as §1

NCI-H727 = tested on: NCI-H727
Method in brief: as §1

NCI-H1650 = tested on: NCI-H1650
Method in brief: as §1

NCI-H441 = tested on: NCI-H441
Method in brief: as §1

NCI-H1437 = tested on: NCI-H1437
Method in brief: as §1

NCI-H2023 = tested on: NCI-H2023
Method in brief: as §1

EKVX = tested on: EKVX
Method in brief: as §1

201T = tested on: 201T
Method in brief: as §1

LU99A = tested on: LU99A
Method in brief: as §1

ABC-1 = tested on: ABC-1
Method in brief: as §1

NCI-H838 = tested on: NCI-H838
Method in brief: as §1

NCI-H3122 = tested on: NCI-H3122
Method in brief: as §1

NCI-H2009 = tested on: NCI-H2009
Method in brief: as §1

PC-14 = tested on: PC-14
Method in brief: as §1

COR-L 105 = tested on: COR-L 105
Method in brief: as §1

BEN = tested on: BEN
Method in brief: as §1

COR-L23 = tested on: COR-L23
Method in brief: as §1

HARA = tested on: HARA
Method in brief: as §1

HCC-366 = tested on: HCC-366
Method in brief: as §1

SMILES: Clc1ccc(Nc2nnc(Cc3ccncc3)c3ccccc23)cc1 [Vatalanib] + CC(C)C[C@H](NC(=O)[C@H](Cc1ccccc1)NC(=O)c1cnccn1)B(O)O [Bortezomib] (partner 0.002 µM)
- relative viability (NCI-H1666; first compound 0.04 µM): 0.795
- relative viability (NCI-H1666; first compound 0.1265 µM): 0.701
- relative viability (NCI-H1666; first compound 0.4 µM): 0.851
- relative viability (NCI-H1666; first compound 1.265 µM): 0.67
- relative viability (NCI-H1666; first compound 4 µM): 0.733
- relative viability (NCI-H661; first compound 0.04 µM): 0.801
- relative viability (NCI-H661; first compound 0.1265 µM): 0.71
- relative viability (NCI-H661; first compound 0.4 µM): 0.882
- relative viability (NCI-H661; first compound 1.265 µM): 0.764
- relative viability (NCI-H661; first compound 4 µM): 0.816
- relative viability (CAL-12T; first compound 0.04 µM): 0.933
- relative viability (CAL-12T; first compound 0.1265 µM): 0.774
- relative viability (CAL-12T; first compound 1.265 µM): 0.988
- relative viability (CAL-12T; first compound 4 µM): 1.05
- relative viability (NCI-H727; first compound 0.04 µM): 0.908
- relative viability (NCI-H727; first compound 0.1265 µM): 0.776
- relative viability (NCI-H727; first compound 0.4 µM): 0.827
- relative viability (NCI-H727; first compound 1.265 µM): 0.854
- relative viability (NCI-H727; first compound 4 µM): 0.706
- relative viability (NCI-H1650; first compound 0.04 µM): 0.196
- relative viability (NCI-H1650; first compound 0.1265 µM): 0.217
- relative viability (NCI-H1650; first compound 0.4 µM): 0.206
- relative viability (NCI-H1650; first compound 1.265 µM): 0.174
- relative viability (NCI-H1650; first compound 4 µM): 0.195
- relative viability (NCI-H441; first compound 0.04 µM): 0.421
- relative viability (NCI-H441; first compound 0.1265 µM): 0.444
- relative viability (NCI-H441; first compound 0.4 µM): 0.52
- relative viability (NCI-H441; first compound 1.265 µM): 0.448
- relative viability (NCI-H441; first compound 4 µM): 0.448
- relative viability (NCI-H1437; first compound 0.04 µM): 0.57
- relative viability (NCI-H1437; first compound 0.1265 µM): 0.577
- relative viability (NCI-H1437; first compound 0.4 µM): 0.507
- relative viability (NCI-H1437; first compound 1.265 µM): 0.445
- relative viability (NCI-H1437; first compound 4 µM): 0.495
- relative viability (NCI-H2023; first compound 0.04 µM): 1.02
- relative viability (NCI-H2023; first compound 0.1265 µM): 0.837
- relative viability (NCI-H2023; first compound 0.4 µM): 1.02
- relative viability (NCI-H2023; first compound 1.265 µM): 0.946
- relative viability (NCI-H2023; first compound 4 µM): 0.695
- relative viability (EKVX; first compound 0.04 µM): 1.1
- relative viability (EKVX; first compound 0.1265 µM): 0.647
- relative viability (EKVX; first compound 0.4 µM): 1.22
- relative viability (EKVX; first compound 1.265 µM): 0.984
- relative viability (EKVX; first compound 4 µM): 0.848
- relative viability (201T; first compound 0.04 µM): 1.08
- relative viability (201T; first compound 0.1265 µM): 1.11
- relative viability (201T; first compound 0.4 µM): 1.11
- relative viability (201T; first compound 1.265 µM): 1.08
- relative viability (201T; first compound 4 µM): 1.13
- relative viability (LU99A; first compound 0.04 µM): 1.19
- relative viability (LU99A; first compound 0.1265 µM): 1.16
- relative viability (LU99A; first compound 0.4 µM): 1.27
- relative viability (LU99A; first compound 1.265 µM): 1.22
- relative viability (LU99A; first compound 4 µM): 1.19
- relative viability (ABC-1; first compound 0.04 µM): 0.334
- relative viability (ABC-1; first compound 0.1265 µM): 0.243
- relative viability (ABC-1; first compound 0.4 µM): 0.348
- relative viability (ABC-1; first compound 1.265 µM): 0.357
- relative viability (ABC-1; first compound 4 µM): 0.351
- relative viability (NCI-H838; first compound 0.04 µM): 0.973
- relative viability (NCI-H838; first compound 0.1265 µM): 0.99
- relative viability (NCI-H838; first compound 0.4 µM): 0.805
- relative viability (NCI-H838; first compound 1.265 µM): 0.68
- relative viability (NCI-H838; first compound 4 µM): 0.798
- relative viability (NCI-H3122; first compound 0.04 µM): 1.01
- relative viability (NCI-H3122; first compound 0.1265 µM): 1.06
- relative viability (NCI-H3122; first compound 0.4 µM): 1.08
- relative viability (NCI-H3122; first compound 1.265 µM): 1.07
- relative viability (NCI-H3122; first compound 4 µM): 1.01
- relative viability (NCI-H2009; first compound 0.04 µM): 1.19
- relative viability (NCI-H2009; first compound 0.1265 µM): 0.891
- relative viability (NCI-H2009; first compound 0.4 µM): 1.14
- relative viability (NCI-H2009; first compound 1.265 µM): 0.949
- relative viability (NCI-H2009; first compound 4 µM): 0.984
- relative viability (PC-14; first compound 0.04 µM): 1.02
- relative viability (PC-14; first compound 0.1265 µM): 0.849
- relative viability (PC-14; first compound 0.4 µM): 0.969
- relative viability (PC-14; first compound 1.265 µM): 0.852
- relative viability (PC-14; first compound 4 µM): 0.828
- relative viability (COR-L 105; first compound 0.04 µM): 0.941
- relative viability (COR-L 105; first compound 0.1265 µM): 0.783
- relative viability (COR-L 105; first compound 0.4 µM): 0.931
- relative viability (COR-L 105; first compound 1.265 µM): 0.713
- relative viability (COR-L 105; first compound 4 µM): 0.651
- relative viability (BEN; first compound 0.04 µM): 0.851
- relative viability (BEN; first compound 0.1265 µM): 0.682
- relative viability (BEN; first compound 0.4 µM): 0.906
- relative viability (BEN; first compound 1.265 µM): 0.665
- relative viability (BEN; first compound 4 µM): 0.806
- relative viability (COR-L23; first compound 0.04 µM): 1.1
- relative viability (COR-L23; first compound 0.1265 µM): 0.934
- relative viability (COR-L23; first compound 0.4 µM): 1.01
- relative viability (COR-L23; first compound 1.265 µM): 1.01
- relative viability (COR-L23; first compound 4 µM): 0.942
- relative viability (HARA; first compound 0.04 µM): 0.71
- relative viability (HARA; first compound 0.1265 µM): 0.953
- relative viability (HARA; first compound 0.4 µM): 1.23
- relative viability (HARA; first compound 1.265 µM): 1.12
- relative viability (HARA; first compound 4 µM): 1.06
- relative viability (HCC-366; first compound 0.04 µM): 1.09
- relative viability (HCC-366; first compound 0.1265 µM): 0.924
- relative viability (HCC-366; first compound 0.4 µM): 1.03
- relative viability (HCC-366; first compound 1.265 µM): 1.06
- relative viability (HCC-366; first compound 4 µM): 1.05
